Columns and labels:
GOF Hec50co cells = test: BIBFs effect on NPs uptake using flow cytometry; format: cell-based, human; details: 1 μM BIBFs, 6 h, serum containing media
Method: (§1) BIBFs effect on NPs uptake using flow cytometry. The effect of BIBFs on the uptake of different RHDp against Hec50co cells and GOF Hec50co cells was tested. Both cell lines were plated at a seeding density of 10^5 cell/well in 12 well plate, and then the experiment was carried out as mentioned in section [00125]) with two exceptions: a) RHDp uptake was evaluated in the presence or absence of 1 μM BIBFs, b) the experiment was carried out in serum containing media to mimic the in vivo conditions.

Hec50co cells [1] = test: BIBFs effect on NPs uptake using flow cytometry; format: cell-based, human; details: 1 μM BIBFs, 6 h, serum containing media
Method: as §1

Hec50co cells [2] = details: 5 mg/kg each IV on days 18, 25, 32
Method: In vivo efficacy studies using mouse xenograft model of LOF p53 USC. Female athymic NCI-nu/nu mice (Charles River, Wilmington, Mass.) at the age of 6-8 weeks were challenged subcutaneously with 2×10^6 Hec50co cells in the right flank after isoflurane anesthesia. […] Mice were 5 per group, except the group that received the combination therapy were 7. Treatments were administered TV through retro-orbital injections in the venous sinus on days 18, 25, and 32. The tumor diameters and height were measured using digital caliper. The tumor volumes were calculated from the following formula:
Where D1 is the first tumor diameter (mm), D2 is the second tumor diameter (mm), and H is the tumor height.
Mice weights were monitored during the experiment and mice were euthanized once the tumor diameter exceeded 2 cm or tumor height exceeded 1 cm. Sample sizes for this experiment were estimated based on preliminary data in order to have 80% power to detect significant differences between groups. All animal experiments were not blinded, and were carried out in accordance with guidelines and regulations approved by the University of Iowa Institutional Animal Care and Use Committee.

## COC(=O)c1ccc2c(c1)NC(=O)/C2=C(\Nc1ccc(N(C)C(=O)CN2CCN(C)CC2)cc1)c1ccccc1 [BIBFs, BIBF-1120]
GOF Hec50co cells
  increase in fluorescence intensity on addition to RHDp (75/T): 1.5 fold
Hec50co cells [1]
  increase in fluorescence intensity on addition to RHDp (75/T): 1.5 fold

## CC(=O)O[C@H]1C(=O)[C@@]2(C)[C@H]([C@H](OC(=O)c3ccccc3)[C@]3(O)C[C@H](OC(=O)[C@H](O)[C@@H](NC(=O)c4ccccc4)c4ccccc4)C(C)=C1C3(C)C)[C@]1(OC(C)=O)CO[C@@H]1C[C@@H]2O [PTXs, paclitaxel]
Hec50co cells [2]
  median survival: 41 days

Source: patent publication US20220110882A1, “SYNTHETICALLY LETHAL NANOPARTICLES FOR TREATMENT OF CANCERS” (UNIVERSITY OF IOWA RESEARCH FOUNDATION, priority 2017, published 2022)
